Where “and” joins values, the source holds several entries; their conditions need not be identical. Identical values can stand only once. Entries after “also recorded” stand apart in the source; their conditions may differ. Like-named read-outs stand apart in the source and are kept apart here.
Experiments:
[1] = tested on: HHD-transfected RMA-S cells loaded with relevant peptide; test: CTL response of HHD mice injected s.c. with tumor epitopic peptide in IFA (51Cr-release assay); assay type: in vivo; settings: for hierarchy of CTL inducers: peptide alone in IFA, by number of responding mice and level of specific lysis; for R/T (responder versus tested mice): peptide s.c. in IFA, no helper, responder = at least 10% specific lysis
[2] = tested on: HHD-transfected RMA-S cells loaded with relevant peptide; test: CTL response of A2A2Kb mice injected s.c. with tumor epitopic peptide in IFA (51Cr-release assay); assay type: in vivo; settings: responder = at least 10% specific lysis
[3] = tested on: HHD-transfected RMA-S target cells loaded with relevant peptide; test: CTL response of HHD mice co-immunized in IFA with tumor peptide and HBVc.128 helper peptide; assay type: in vivo; settings: for R/T (responder versus tested mice): 50 μg CD8 peptide + 140 μg HBVc.128 helper in IFA; for CTL response with helper peptide (in words): co-injected with HBVc.128 helper, compared with peptide alone
[4] = tested on: HHD-transfected RMAS cells loaded with relevant peptide; test: CTL response of HHD mice immunized with peptide-loaded dendritic cells; assay type: in vivo; settings: for lysis in % (highest specific lysis): individual mice 1-6, usually 60/1 E/T; for lysis in % after a second in vitro restimulation: second restimulation with 10% TCGF, individual mice 1-6
[5] = tested on: HHD-transfected RMAS cells loaded with relevant peptide; test: CTL response of HHD mice immunized with recombinant Ty-VLP; assay type: in vivo; settings: for lysis in % (highest specific lysis): recombinant Ty-VLP carrying the epitope, individual mice 1-6; for CTL responses (in words): recombinant Ty-VLP, all animals tested
[6] = tested on: HHD-transfected RMAS cells loaded with relevant peptide; test: CTL response of HHD mice immunized with monoepitopic pCMV-B10 DNA; assay type: in vivo; settings: for lysis in % (highest specific lysis): pCMV-B10 DNA encoding the epitope, individual mice 1-6; for CTL responses (in words): recombinant pCMV-B10-DNA, all animals tested
[7] = tested on: HHD-transfected RMAS cells loaded with relevant peptide; test: CTL response of HHD mice immunized with lipopeptides; assay type: in vivo; settings: lipopeptide of the epitope; individual mice 1-6
[8] = tested on: peptide-loaded HHD-transfected RMA-S cells and HHD-transfected HeLa cells expressing the polyepitope; test: Melanoma polyepitopic pCMV-B10 DNA immunization of HHD mice, CTL assay; assay type: in vivo; settings: pCMV-B10 DNA with 10 melanoma epitopes, FIG. 1C and D
[9] = tested on: peptide-pulsed HHD-transfected RMAS cells; assay type: in vivo, HHD mice; settings: for classification as immunogen: by number of responder mice and strength of responses, peptide in IFA; for Responder/tested mice: 100 μg peptide s.c. in IFA
[10] = tested on: peptide-pulsed HHD-transfected RMAS cells; assay type: in vivo, HHD mice; settings: with helper peptide; for Responder/tested mice: 50 μg CD8 + 140 μg HBV core T13L in IFA
[11] = tested on: HHD-transfected RMA-S cells loaded with variant peptides; test: Cross-recognition of the main HIV 1 natural variants by induced CTL; assay type: in vivo, HHD mice; settings: CTL induced by the immunizing peptide; FIG. 4
Procedure: Therefore, we tested, in the four latter cases, whether the elicited CTL responses by the selected wild-type or tyrosine substituted immunizing peptides could cross-recognize natural variants of a significant representation among HIV 1 isolates.
Cytolytic activity was evaluated against peptide-loaded HHD-transfected RMA-S cells using Inf.m.G9L peptide-loaded cells as a negative control.

[12] = target: T1, HLA-A2.1 molecules (Homo sapiens, UniProt P04439, D140Y/D185E/D98H/E176V/E277Q/G131W/G231S/I119V/I121R/I166T/I218V/L300P/L318F/N151K/N90K/P208A/P217A/Q86G/Q94H/R138H/R169H/T345S); assay type: binding
T1 construct: Using TAP-deficient, HLA-A2.1^+ T2 cells, we evaluated these parameters in an immunofluorescence assay; endogenous in cells; host or cells: T2 cells (TAP-deficient, HLA-A2.1+)

[13] = target: T1, HLA-A2.1 molecules; assay type: binding; settings: wild-type HIV 1 peptides; T2 cells, 37° C., brefeldine A
[14] = wild-type HIV 1 peptides, reference I9V, T2 cells

Row | Sequence | hierarchy of CTL inducers [1] | R/T (responder versus tested mice) [1] | R/T (responder versus tested mice) [2] | R/T (responder versus tested mice) [3] | lysis in % (highest specific lysis) [4] | lysis in % after a second in vitro restimulation [4] | lysis in % (highest specific lysis) [5] | lysis in % (highest specific lysis) [6] | lysis in % (highest specific lysis) [7] | classification as immunogen [9] | Responder/tested mice ([9]; without helper peptide) | Responder/tested mice [10] | RA (relative affinity) [12, 14] | DC (half-life of stabilized peptide-HLA-A2.1 complexes, DC 50) [13] [h] | other results
1 | YLSGANLNL [CEA.571, CEA 571-579 epitopic peptide] | strong | 6/6 | 0/6 | 3/6 | 4% (2×) and 1% (2×) and 0% and 2% | (1) %; also recorded: (5) %; also recorded: (2) %; also recorded: (0) %; also recorded: (22) % | 56% and 59% and 51% and 58% and 46% and 62% | 19% and 66% and 40% and 65% and 62% and 55% | 0% (2×) and 8% (2×) and 34% and 3% |  |  |  |  |  | CTL response with helper peptide (in words) [3]: less immunogenic; CTL responses (in words) [5]: strong CTL responses; CTL responses (in words) [6]: strong CTL responses
2 | YLEPGPVTA [gp100.280] | weak | 3/16 | 0/6 | 2/8 | 0% | (1) %; also recorded: (0) % | 8% (2×) and 3% and 1% and 4% and 18% | 0% (2×) and 8% and 36% and 21% and 9% | 0% (2×) and 8% (2×) and 40% and 21% |  |  |  |  |  | CTL response against the epitope after melanoma polyepitope DNA immunization (in words) [8]: did not elicit CTL responses; also recorded: No specific lysis
3 | ALVEICTEM [A9M, HIV 1 POL (188-196) CD8 epitopic peptide] |  |  |  |  |  |  |  |  |  | intermediate | 3/6 | 1/6 |  |  | Maximal specific lysis (%) ([10]; each responder mouse): 31%; cross-recognition of natural HIV 1 variants (in words) [11]: cross-lysed significantly all main natural variants
4 | VLPDVFIRC [NA17-A.nt38, NA17-A nt38-64 epitopic peptide] | intermediate | 4/7 | 0/6 | 5/6 | 0% (2×) and 3% (2×) and 5% and 6% | (6) %; also recorded: (5) %; also recorded: (24) %; also recorded: (9) %; also recorded: (7) %; also recorded: (2) % | 55% and 39% and 50% and 60% and 59% and 61% | 35% and 43% and 47% and 44% and 40% and 54% | 0% (2×) and 12% and 68% and 65% and 47% |  |  |  |  |  | RA (relative affinity) [12]: 1.52; CTL response with helper peptide (in words) [3]: stronger responses in a larger proportion of mice; CTL responses (in words) [5]: strong CTL responses; CTL responses (in words) [6]: strong CTL responses; CTL response against the epitope after melanoma polyepitope DNA immunization (in words) [8]: Strong responses
5 | LLDTGADDTV [L10V] |  |  |  |  |  |  |  |  |  | intermediate | 1/6 | 0/6 | 10 | < 2 | Maximum specific lysis (%) ([9]; without helper peptide, each responder mouse): 48%
6 | KLTPLCVSL [K9L, HIV 1 ENV gp120 (120-128) CD8 epitopic peptide] |  |  |  |  |  |  |  |  |  | intermediate | 3/6 | 4/6 | 1.35 | > 6 | cross-recognition of natural HIV 1 variants (in words) [11]: lack of cross-recognition
7 | EMMTACQGV [E9V] |  |  |  |  |  |  |  |  |  | inefficient | 0/6 | 0/6 |  | < 2 | 
8 | VLDVGDAYFSV [V11V] |  |  |  |  |  |  |  |  |  | intermediate | 3/6 | 2/6 | 4.5 | 2 | 
9 | YMNGTMSOV [Tyrosinase.368-N] | intermediate | 4/15 | 0/6 | 5/12 | 0% (4×) and 8% and 15% | (3) %; also recorded: (17) %; also recorded: (30) %; also recorded: (80) %; also recorded: (61) %; also recorded: (1) % | 0% and 61% and 58% and 39% and 29% and 17% | 6% and 12% and 16% and 13% and 11% and 38% | 51% and 20% and 0% and 5% and 11% and 12% |  |  |  |  |  | RA (relative affinity) [12]: 2.2

Reference: patent publication US20020164721A1, “Design of a polyepitopic construct for the induction of HLA-A2.1 restricted HIV 1 specific CTL responses using HHD mice” (priority 1999, published 2002)
